Values quoted from earlier work, collected in US20180271890A1, “Solid Pharmaceutical Composition Comprising Amorphous Sofosbuvir” (priority 2015, published 2018).

| Structure (SMILES) | behaviour under stress conditions (40 °C, relative humidity 75%) | relative humidity at which the substance deliquesces (amorphous form) |
| --- | --- | --- |
| CC(C)OC(=O)[C@H](C)N[P@](=O)(OC[C@H]1O[C@@H](n2ccc(=O)[nH]c2=O)[C@](C)(F)[C@@H]1O)Oc1ccccc1 [sofosbuvir, (S)-isopropyl 2-(((S)-(((2R,3R,4R,5R)-5-(2,4-dioxo-3,4-dihydropyrimidin-1(2H)-yl)-4-fluoro-3-hydroxy-4-methyltetrahydrofuran-2-yl)methoxy)(phenoxy)phosphoryl)-amino)propanoate] | deliquesces after a few hours |  |
| CC(C)OC(=O)[C@H](C)N[P@](=O)(OC[C@H]1O[C@@H](n2ccc(=O)[nH]c2=O)[C@](C)(F)[C@@H]1O)Oc1ccccc1 [Amorphous sofosbuvir, (S)-isopropyl 2-(((S)-(((2R,3R,4R,5R)-5-(2,4-dioxo-3,4-dihydropyrimidin-1(2H)-yl)-4-fluoro-3-hydroxy-4-methyltetrahydrofuran-2-yl)methoxy)(phenoxy)phosphoryl)-amino)propanoate] |  | above 50% |
